Results published in ChEMBL document CHEMBL2429722, “Synthesis of the non-peptidic snail toxin 6-bromo-2-mercaptotryptamine dimer (BrMT)(2), its lower and higher thio homologs and their ability to modulate potassium ion channels” (Bioorg Med Chem Lett, 2013).

Assays:
Type in all cases: cell-based
Conditions in all cases: Oocyte
[1] = target: Potassium voltage-gated channel subfamily A member 1 (Mus musculus) (UniProt P16388); experiment: Inhibition of mouse Kv1.1 channel expressed in Xenopus laevis oocytes assessed as -50 mV current-induced channel closing time at 20 uM after 2 mins by two-electrode voltage clamp assay (reference value: 14.6 +/- 0.3 ms)
Potassium voltage-gated channel subfamily A member 1 (Mus musculus), sequence (P16388 whole entry): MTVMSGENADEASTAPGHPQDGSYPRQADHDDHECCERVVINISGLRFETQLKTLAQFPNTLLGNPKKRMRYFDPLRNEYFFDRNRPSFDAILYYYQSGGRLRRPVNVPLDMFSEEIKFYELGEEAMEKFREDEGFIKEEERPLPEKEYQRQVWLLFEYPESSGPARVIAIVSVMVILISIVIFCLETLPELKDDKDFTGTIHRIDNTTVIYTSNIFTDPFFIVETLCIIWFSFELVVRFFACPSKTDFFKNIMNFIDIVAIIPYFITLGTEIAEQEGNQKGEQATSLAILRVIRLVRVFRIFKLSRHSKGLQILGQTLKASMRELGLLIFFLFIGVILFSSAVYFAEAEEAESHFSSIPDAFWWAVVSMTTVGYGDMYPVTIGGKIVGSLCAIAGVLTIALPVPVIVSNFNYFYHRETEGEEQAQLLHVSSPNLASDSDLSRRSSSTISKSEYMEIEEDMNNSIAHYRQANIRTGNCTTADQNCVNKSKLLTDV

[2] = target: Potassium voltage-gated channel subfamily A member 1 (Mus musculus) (UniProt P16388); experiment: Inhibition of mouse Kv1.1 channel expressed in Xenopus laevis oocytes assessed as decrease in +60 mV current-induced time constant of activation at 20 uM after 2 mins by two-electrode voltage clamp assay relative to control
[3] = target: Potassium voltage-gated channel subfamily A member 1 (Mus musculus) (UniProt P16388); experiment: Inhibition of mouse Kv1.1 channel expressed in Xenopus laevis oocytes assessed as reduction of current amplitude at 20 uM after 2 mins by two-electrode voltage clamp assay relative to control
[4] = target: Potassium voltage-gated channel subfamily A member 1 (Mus musculus) (UniProt P16388); experiment: Inhibition of mouse Kv1.1 channel expressed in Xenopus laevis oocytes assessed as -50 mV current-induced channel closing time at 8 uM after 2 mins by two-electrode voltage clamp assay (reference value: 14.6 +/- 0.3 ms)
[5] = target: Potassium voltage-gated channel subfamily A member 1 (Mus musculus) (UniProt P16388); experiment: Inhibition of mouse Kv1.1 channel expressed in Xenopus laevis oocytes assessed as reduction of current amplitude at 15 uM after 2 mins by two-electrode voltage clamp assay relative to control
[6] = target: Potassium voltage-gated channel subfamily A member 1 (Mus musculus) (UniProt P16388); experiment: Inhibition of mouse Kv1.1 channel expressed in Xenopus laevis oocytes assessed as reduction of current amplitude at 8 uM after 2 mins by two-electrode voltage clamp assay relative to control
[7] = target: Potassium voltage-gated channel subfamily A member 1 (Mus musculus) (UniProt P16388); experiment: Inhibition of mouse Kv1.1 channel expressed in Xenopus laevis oocytes assessed as -50 mV current-induced channel closing time at 15 uM after 2 mins by two-electrode voltage clamp assay (reference value: 14.6 +/- 0.3 ms)
[8] = target: Potassium voltage-gated channel subfamily A member 1 (Mus musculus) (UniProt P16388); experiment: Inhibition of mouse Kv1.1 channel expressed in Xenopus laevis oocytes assessed as decrease in +60 mV current-induced time constant of activation at 15 uM after 2 mins by two-electrode voltage clamp assay relative to control
[9] = target: Potassium voltage-gated channel subfamily A member 1 (Mus musculus) (UniProt P16388); experiment: Inhibition of mouse Kv1.1 channel expressed in Xenopus laevis oocytes assessed as decrease in +60 mV current-induced time constant of activation at 8 uM after 2 mins by two-electrode voltage clamp assay relative to control

| TIME [1] [h] | fold change (FC) [2] | fold change (FC) [3] | Compound | TIME [4] [h] | fold change (FC) [5] | inhibition [6] [%] | TIME [7] [h] | fold change (FC) [8] | fold change (FC) [9] |
| --- | --- | --- | --- | --- | --- | --- | --- | --- | --- |
| 9.28e-06 | 5 | 0.59 | NCCc1c(Sc2[nH]c3cc(Br)ccc3c2CCN)[nH]c2cc(Br)ccc12 | – | – | – | – | – | – |
| – | – | – | NCCc1c(SSc2[nH]c3cc(Br)ccc3c2CCN)[nH]c2cc(Br)ccc12 | 4.94e-06 | 0.69 | 15 | 3.81e-06 | 5 | 3 |
| – | – | – | NCCc1c(SSSc2[nH]c3cc(Br)ccc3c2CCN)[nH]c2cc(Br)ccc12 | 4.06e-06 | – | 35 | – | – | 3 |
